Test results published in patent US7666454B2, “Cosmetic composition comprising an essential oil extracted from Helichrysum italicum” (L'Occitane, priority 2001, dated 2010).

Tested on: human endothelial cells in co-culture (AngioKit)
Assay: AngioKit in vitro angiogenesis model (tubule formation, CD31 staining, image analysis)
Format: cell-based
Method: The in vitro model we used was the AngioKit (Biopredic—ref ZHA-1000—lot no. 25173T) which approaches a more global vision of angiogenesis. In this model, human endothelial cells are seeded in a specific medium in co-culture with another type of human cells. In the initial phase, the endothelial cells form small islets. They begin to proliferate and then enter into a migration phase which leads to formation of structures of filamentous tubule form in the matrix. At the end of 10 to 12 days, the connections established form a network of anastomosed tubules. The staining of the tubules is obtained by specific marking of the antigen of surface antigen CD31 (PECAM-1), which is expressed by the endothelial cells.
The test is validated by staining the tubules and verification of the inhibitory and activating action of two pharmacological compounds known to act on angiogenesis. The action on angiogenesis of the active ingredients tested was evaluated by quantitative image analysis.
The cells were cultured in 24-well plates in an incubator at 37° C. under a humid atmosphere containing 5% CO2.
The specific culture medium was eliminated and the cells were placed under different experimental conditions:
Negative control: suramin, agent inhibiting formation of tubules—final concentration: 20 μM;
Positive control: VEGF, activating agent of angiogenesis—final concentration: 2 ng/ml;
Composition for the face: Since this composition of essential oils is not miscible in the culture medium, it was dissolved in absolute ethanol and tested at three concentrations (the non-cytotoxic character of which had been verified in advance by 24-hour contact with normal human fibroblasts): 0.005%-0.01%-0.05% (v/v); and
Solvent control: since ethanol could have effects on angiogenesis, it was tested at the final concentration required for dissolving the essential oils composition: 0.1% (v/v).
Each condition was implemented in duplicate. Microscopic observation of the cells was performed daily to monitor formation of tubules as shown in the photograph of FIG. 2.
The media were eliminated and the conditions were renewed on the 3rd, 6th and 9th day of the experiment. On the 10th day, the cells were fixed and stained: after rinsing in the PBS buffer, the cells were fixed in a 70% ethanol solution cooled at −20° C. for 30 minutes. The cells were then incubated for 1 hour at 37° C. with the human anti-CD-31 ZIS-3090 antibody (TCS CellWorks). […]
Evaluation of the angiogenic power of the compound tested was quantified by image analysis (Olympus IX70 Auto Analysis System) by measuring the length of the tubules developed (in μm) and the number of junctions established within the anastomosed network. […]

| Molecule | number of junctions augmented by a factor compared to the control (VEGF 2 ng/ml, day 10) | stimulator effect on the length of the tubular network compared to the control (VEGF 2 ng/ml, day 10) | inhibition at 20 µM (Homo sapiens, Endothelial cell, 240 h, read-out: inhibition of the length of the tubular network compared to the control) | number of junctions diminished by a factor compared to the control (suramin 20 μM, day 10) |
| --- | --- | --- | --- | --- |
| VEGF | 1.7 | 54% |  |  |
| Cc1ccc(C(=O)Nc2ccc(S(=O)(=O)O)c3cc(S(=O)(=O)O)cc(S(=O)(=O)O)c23)cc1NC(=O)c1cccc(NC(=O)Nc2cccc(C(=O)Nc3cc(C(=O)Nc4ccc(S(=O)(=O)O)c5cc(S(=O)(=O)O)cc(S(=O)(=O)O)c45)ccc3C)c2)c1 [suramin] |  |  | 49% | 5.7 |
